US20200361871A1 (Enterprise Therapeutics Ltd., priority 2018, published 2020)

Target: human TMEM16A (TMEM16Aabc variant) (Homo sapiens, UniProt Q5XXA6, DEL476-501, form not given)
Assay: Automated whole-cell patch clamp (Qpatch) TMEM16A potentiator assay in FRT cells stably expressing human TMEM16A
Type: cell-based
Settings: for % Potentiation @ 3.33 μM Avg: 3.33 μM solution of test compound, percentage increase of baseline TMEM16A current; for EC50: calculated EC50, Qpatch TMEM16A current at +70 mV
Procedure, shortened: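 Potentiation was read as the rise in peak +70 mV current over baseline (%), from cumulative 5-min additions of compound. Recordings used whole-cell automated patch of FRT cells stably carrying human TMEM16Aabc, with pipette Ca2+ buffered to give ~20% maximal current. EC50 and efficacy came from concentration-response fits.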

Chain of human TMEM16A (TMEM16Aabc variant) (Q5XXA6 with tags, fused parts or gaps DEL476-501): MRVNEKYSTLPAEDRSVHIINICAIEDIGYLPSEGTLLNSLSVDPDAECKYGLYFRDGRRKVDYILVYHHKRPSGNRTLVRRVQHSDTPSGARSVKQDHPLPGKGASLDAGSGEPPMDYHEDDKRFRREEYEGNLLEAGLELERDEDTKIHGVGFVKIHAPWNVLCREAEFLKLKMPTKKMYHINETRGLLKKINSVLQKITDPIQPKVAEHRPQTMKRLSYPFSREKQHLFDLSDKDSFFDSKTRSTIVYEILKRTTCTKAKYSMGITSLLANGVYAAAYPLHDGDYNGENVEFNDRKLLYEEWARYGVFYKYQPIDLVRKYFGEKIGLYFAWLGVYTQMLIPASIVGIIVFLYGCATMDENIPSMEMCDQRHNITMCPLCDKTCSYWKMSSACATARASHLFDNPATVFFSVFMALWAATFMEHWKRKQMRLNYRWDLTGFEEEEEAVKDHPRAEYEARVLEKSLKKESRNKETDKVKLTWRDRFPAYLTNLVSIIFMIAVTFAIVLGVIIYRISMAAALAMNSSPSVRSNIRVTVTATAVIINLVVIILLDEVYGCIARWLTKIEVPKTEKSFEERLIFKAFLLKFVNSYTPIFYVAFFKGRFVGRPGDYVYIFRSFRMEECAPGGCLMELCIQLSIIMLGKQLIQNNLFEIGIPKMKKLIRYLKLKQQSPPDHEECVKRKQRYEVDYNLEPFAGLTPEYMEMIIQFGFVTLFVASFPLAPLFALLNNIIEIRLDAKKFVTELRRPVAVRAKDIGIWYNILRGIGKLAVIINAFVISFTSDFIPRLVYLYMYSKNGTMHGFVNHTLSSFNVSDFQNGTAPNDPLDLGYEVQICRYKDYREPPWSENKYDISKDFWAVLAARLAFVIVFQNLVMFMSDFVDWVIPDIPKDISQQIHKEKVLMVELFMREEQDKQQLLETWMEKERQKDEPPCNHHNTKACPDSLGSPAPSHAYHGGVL

| Compound | % Potentiation @ 3.33 μM Avg [%] | EC50 [nM] |
| --- | --- | --- |
| CC(C)(C#N)NC(=O)c1cc(NC(=O)c2cnc(C3CC3)nc2)ccn1 [Example 83.8, N-[2-[(1-Cyano-1-methyl-ethyl)carbamoyl]-4-pyridyl]-2-cyclopropyl-pyrimidine-5-carboxamide] | 35 |  |
| CC(=O)Nc1ccc(C(=O)Nc2ccnc(C(=O)NC(C)(C)C#N)c2)cc1 [Example 83.29, 4-[(4-Acetamidobenzoyl)amino]-N-(1-cyano-1-methyl-ethyl)pyridine-2-carboxamide] | -9 |  |
| O=C(Cc1cc(Cl)ccc1O)Nc1ccnc(C(=O)NCCCc2ccccc2)c1 [Example 35.10, 4-[[2-(5-Chloro-2-hydroxy-phenyl)acetyl]amino]-N-(3-phenylpropyl)pyridine-2-carboxamide] | 223 | 280 |
| CC(C)(C)NC(=O)c1cc(NC(=O)NCc2cccc(Cl)c2)ccn1 [Example 64.7, N-tert-Butyl-4-[(3-chlorophenyl)methylcarbamoylamino]pyridine-2-carboxamide] | 83 |  |
| CC(C)(C)NC(=O)c1cc(NC(=O)Cc2cc(Cl)c(CN3CCC(F)(F)C3)cc2O)ccn1 [Example 27.3, N-tert-Butyl-4-[[2-[5-chloro-4-[(3,3-difluoropyrrolidin-1-yl)methyl]-2-hydroxy-phenyl]acetyl]amino]pyridine-2-carboxamide] | 166 | 290 |
| CC(C)(C)NC(=O)c1cc(NC(=O)Nc2ccccc2O)ccn1 [Example 65, N-tert-Butyl-4-[(2-hydroxyphenyl)carbamoylamino]pyridine-2-carboxamide] | 55 |  |
| CC1(NC(=O)c2cc(NC(=O)Cc3cc(Cl)ccc3O)ccn2)CC1 [Example 35.8, 4-[[2-(5-Chloro-2-hydroxy-phenyl)acetyl]amino]-N-(1-methylcyclopropyl)pyridine-2-carboxamide] | 250 | 180 |
| O=C(Cc1cc(F)ccc1O)Nc1ccnc(C(=O)NC23CCC(F)(C2)C3)c1 [Example 81.4, N-(4-Fluoro-1-bicyclo[2.1.1]hexanyl)-4-[[2-(5-fluoro-2-hydroxy-phenyl)acetyl]amino] pyridine-2-carboxamide] | 122 | 40 |
| CC(C)(C#N)NC(=O)c1cc(NC(=O)c2ccc3c(c2)OCC(=O)N3)ccn1 [Example 83.17, N-[2-[(1-Cyano-1-methyl-ethyl)carbamoyl]-4-pyridyl]-3-oxo-4H-1,4-benzoxazine-7-carboxamide] | 8 |  |
| O=C(Cc1cc(Cl)ccc1O)Nc1cccc(C(=O)NC2CCOCC2)c1 [Example 7.4, 3-[[2-(5-Chloro-2-hydroxy-phenyl)acetyl]amino]-N-tetrahydropyran-4-yl-benzamide] | 52 | 650 |
| C#CC(C)(C)NC(=O)c1cc(NC(=O)CC2CCC(F)(F)CC2)ccn1 [Example 5.34, 4-[[2-(4,4-Difluorocyclohexyl)acetyl]amino]-N-(1,1-dimethylprop-2-ynyl)pyridine-2-carboxamide] | 185 | 640 |
| CC(C)(C)NC(=O)c1cc(NC(=O)Cc2cc(O)ccc2F)ccn1 [Example 3.13b, N-tert-butyl-4-[[2-(2-fluoro-5-hydroxy-phenyl)acetyl]amino]pyridine-2-carboxamide] | 179 | 250 |
| CC(CC(=O)Nc1ccnc(C(=O)NC(C)(C)C#N)c1)c1ccc(F)cc1 (stereo not drawn) [Example 83.31, N-(1-Cyano-1-methyl-ethyl)-4-[3-(4-fluorophenyl)butanoylamino]pyridine-2-carboxamide] | 78 |  |
| COc1ccc(COc2ccc(Cl)cc2CC(=O)Nc2ccnc(C(=O)NC(C)(C)C)c2)cc1 [Example 56, N-tert-Butyl-4-[[2-[5-chloro-2-[(4-methoxyphenyl)methoxy]phenyl]acetyl]amino]pyridine-2-carboxamide] | 76 |  |
| O=C(Cc1cc(Cl)ccc1O)Nc1ccnc(C(=O)NC23CCC(F)(C2)C3)c1 [Example 44, 4-[[2-(5-Chloro-2-hydroxy-phenyl)acetyl]amino]-N-(4-fluoro-1-bicyclo[2.1.1]hexanyl)pyridine-2-carboxamide] | 377 | 50 |
| COC(=O)c1ccc(O)c(CC(=O)Nc2cccc(C(=O)NC(C)(C)C)c2)c1 [Example 2.18, Methyl 3-[2-[3-(tert-butylcarbamoyl)anilino]-2-oxo-ethyl]-4-hydroxy-benzoate] | 118 | 1410 |
| CC(C)(NC(=O)c1cc(NC(=O)Cc2ccccc2Cl)ccn1)C1CC1 [Example 30.3, 4-[[2-(2-Chlorophenyl)acetyl]amino]-N-(1-cyclopropyl-1-methyl-ethyl)pyridine-2-carboxamide] | 100 | 250 |

| Compound | % Potentiation @ 3.33 μM Avg [%] | EC50 [nM] |
| --- | --- | --- |
| CC(C#N)(CO)NC(=O)c1cc(NC(=O)Cc2cc(Cl)ccc2O)ccn1 (racemic) [Example 46, 4-[[2-(5-Chloro-2-hydroxy-phenyl)acetyl]amino]-N-(1-cyano-2-hydroxy-1-methyl-ethyl)pyridine-2-carboxamide] | 275 | 250 |
| CC(C)(CCNC(=O)OC(C)(C)C)NC(=O)c1cc(NC(=O)Cc2cc(Cl)ccc2O)ccn1 [Example 1.8, tert-Butyl N-[3-[[4-[[2-(5-chloro-2-hydroxy-phenyl)acetyl]amino]pyridine-2-carbonyl]amino]-3-methyl-butyl]carbamate] | 300 | 410 |
| CC(C)(C)NC(=O)c1cc(NC(=O)Cc2cc(Cl)cc(Br)c2O)ccn1 [Example 59, 4-[[2-(3-Bromo-5-chloro-2-hydroxy-phenyl)acetyl]amino]-N-tert-butyl-pyridine-2-carboxamide] | 175 |  |
| CC1(CC(=O)Nc2ccnc(C(=O)NC(C)(C)C#N)c2)CCCCC1 [Example 83.7, N-(1-Cyano-1-methyl-ethyl)-4-[[2-(1-methylcyclohexyl)acetyl]amino]pyridine-2-carboxamide] | 147 |  |
| CC(C)(C#N)NC(=O)c1cc(NC(=O)CC2CC3CCC2C3)ccn1 (stereo not drawn) [Example 83.6, 4-(2-{Bicyclo[2.2.1]heptan-2-yl}acetamido)-N-(1-cyano-1-methylethyl)pyridine-2-carboxamide] | 248 |  |
| C#CC(C)(C)NC(=O)c1cc(NC(=O)Cc2ccccc2Cl)ccn1 [Example 30.1, 4-[[2-(2-Chlorophenyl)acetyl]amino]-N-(1,1-dimethylprop-2-ynyl)pyridine-2-carboxamide] | 245 | 140 |
| CC(C)(C)NC(=O)c1cc(NC(=O)Cc2c[nH]c3ccccc23)ccn1 [Example 5.6, N-tert-Butyl-4-[[2-(1H-indol-3-yl)acetyl]amino]pyridine-2-carboxamide] | 101 | 150 |
| Cc1ccc(O)c(CC(=O)Nc2ccnc(C(=O)NC(C)(C)C)c2)c1 [Example 15, N-tert-Butyl-4-[[2-(2-hydroxy-5-methyl-phenyl)acetyl]amino]pyridine-2-carboxamide] | 200 | 130 |
| CC(C)(C)NC(=O)c1cc(NC(=O)C2CCc3c(Cl)ccc(O)c32)ccn1 (single isomer, unassigned) [Example 57b, N-tert-butyl-4-[[(1S) or (1R)-4-chloro-7-hydroxy-indane-1-carbonyl]amino]pyridine-2-carboxamide] | 162 | 670 |
| CC(C)(C)NC(=O)c1cccc(NC(=O)Cc2c(O)ccc(F)c2F)c1 [Example 2.11, N-tert-Butyl-3-[[2-(2,3-difluoro-6-hydroxy-phenyl)acetyl]amino] benzamide] | 126 | 430 |
| CC(C)(CCNS(C)(=O)=O)NC(=O)c1cc(NC(=O)Cc2cc(Cl)ccc2O)ccn1 [Example 50, 4-[[2-(5-Chloro-2-hydroxy-phenyl)acetyl]amino]-N-[3-(methanesulfonamido)-1,1-dimethyl-propyl]pyridine-2-carboxamide] | 65 |  |
| CC(=O)NCCC(C)(C)NC(=O)c1cc(NC(=O)Cc2cc(Cl)ccc2O)ccn1 [Example 51, N-(3-Acetamido-1,1-dimethyl-propyl)-4-[[2-(5-chloro-2-hydroxy-phenyl)acetyl]amino]pyridine-2-carboxamide] | 54 |  |
| O=C(Cc1cc(Cl)ccc1O)Nc1ccnc(C(=O)N[C@@H]2CCC[C@@H]2O)c1 [Example 35.18, 4-[[2-(5-Chloro-2-hydroxy-phenyl)acetyl]amino]-N-[(1R,2S)-2-hydroxycyclopentyl]pyridine-2-carboxamide] | 147 | 430 |
| CC(C)(C)NC(=O)c1cccc(NC(=O)Cc2ccc(C(F)(F)F)cc2O)c1 [Example 2.19, N-tert-Butyl-3-[[2-[2-hydroxy-4-(trifluoromethyl)phenyl]acetyl]amino]benzamide] | 249 | 460 |
| O=C(Cc1cc(Cl)ccc1O)Nc1cccc(C(=O)NC2(CO)CCOC2)c1 (stereo not drawn) [Example 74.1, 3-[[2-(5-Chloro-2-hydroxy-phenyl)acetyl]amino]-N-[3-(hydroxymethyl)tetra hydrofuran-3-yl]benzamide] | 49 |  |
| CC(C)(C)OC(=O)N1C[C@@H]2[C@H](C1)[C@H]2NC(=O)c1cc(NC(=O)Cc2cc(Cl)ccc2O)ccn1 [Example 8.3, tert-Butyl (1r,5s,6s)-6-{4-[2-(5-chloro-2-hydroxyphenyl)acetamido]pyridine-2-amido}-3-azabicyclo[3.1.0]hexane-3-carboxylate] | 238 | 230 |
| CC1(O)CCC(NC(=O)c2cc(NC(=O)Cc3cc(Cl)ccc3O)ccn2)CC1 (stereo not drawn) [Example 35.1, 4-[[2-(5-Chloro-2-hydroxy-phenyl)acetyl]amino]-N-(4-hydroxy-4-methyl-cyclohexyl) pyridine-2-carboxamide] | 51 |  |
